Target: Aminopeptidase N (Homo sapiens, UniProt P15144)
Experiment: Inhibition of human recombinant APN expressed in HEK293 cells
Assay type: cell-based

Sequence of Aminopeptidase N (P15144 whole entry): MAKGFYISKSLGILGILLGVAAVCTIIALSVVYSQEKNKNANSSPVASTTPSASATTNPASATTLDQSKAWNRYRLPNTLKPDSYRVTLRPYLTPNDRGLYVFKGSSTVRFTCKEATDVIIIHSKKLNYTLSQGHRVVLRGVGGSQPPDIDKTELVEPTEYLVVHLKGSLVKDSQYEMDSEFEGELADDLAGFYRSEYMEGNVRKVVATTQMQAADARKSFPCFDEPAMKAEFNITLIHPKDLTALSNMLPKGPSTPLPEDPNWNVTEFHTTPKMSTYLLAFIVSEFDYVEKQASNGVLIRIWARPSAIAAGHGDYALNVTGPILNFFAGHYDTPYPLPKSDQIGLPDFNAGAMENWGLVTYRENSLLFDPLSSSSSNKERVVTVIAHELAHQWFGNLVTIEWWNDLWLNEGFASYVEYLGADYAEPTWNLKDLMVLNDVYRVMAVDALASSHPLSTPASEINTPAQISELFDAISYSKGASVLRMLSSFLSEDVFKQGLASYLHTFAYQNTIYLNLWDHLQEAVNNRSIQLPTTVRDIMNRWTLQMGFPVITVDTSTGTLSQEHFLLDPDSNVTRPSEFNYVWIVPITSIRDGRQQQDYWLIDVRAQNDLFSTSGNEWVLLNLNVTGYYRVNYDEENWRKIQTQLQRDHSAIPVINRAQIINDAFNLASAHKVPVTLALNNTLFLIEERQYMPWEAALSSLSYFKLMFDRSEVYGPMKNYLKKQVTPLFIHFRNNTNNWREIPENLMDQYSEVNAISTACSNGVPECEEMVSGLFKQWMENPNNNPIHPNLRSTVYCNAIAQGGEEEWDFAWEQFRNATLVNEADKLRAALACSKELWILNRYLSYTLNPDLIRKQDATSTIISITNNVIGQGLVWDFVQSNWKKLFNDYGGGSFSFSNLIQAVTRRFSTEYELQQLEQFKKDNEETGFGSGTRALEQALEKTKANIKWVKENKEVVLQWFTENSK

CC[C@@H](C)[C@H](NC(=O)c1cc(N)cc(Cc2ccc(O)cc2)c1)C(=O)NCc1ccccc1CC(=O)O
Ki: > 100 µM

Nc1cc(Cc2ccc(O)cc2)cc(C(=O)NCc2ccccc2CC(=O)O)c1
Ki: > 100 µM

Reference: ChEMBL document CHEMBL1155005, “Ligands to the (IRAP)/AT4 receptor encompassing a 4-hydroxydiphenylmethane scaffold replacing Tyr2” (Bioorg Med Chem, 2008)
